In general, IC50 refers to the point on the concentration scale where inhibition reaches its midpoint. The EC50 is the midpoint of the concentration-response curve.

Here are results for 14 molecules from patent US20180037568A1, “MODULATORS OF METHYL MODIFYING ENZYMES, COMPOSITIONS AND USES THEREOF” (Constellation Pharmaceuticals, Inc., priority 2015, published 2018).

SMILES strings stand for the structures. Read-outs that look alike come from different tables or passages of the source. Some results are limits rather than exact numbers.

In test [1] the target is EZH2 (Homo sapiens, UniProt Q15910). Put plainly: EZH2 nuc BSA Brij 1.5 (IC50): rPRC2, biotinylated oligonucleosome substrate, 3H SAM FlashPlate. Format: biochemical. The protocol: EZH2 Nuc BSA Brij 1.5 (IC50):
Assays were carried out by mixing rPRC2 together with biotinylated oligonucleosome substrates in the presence of the radio-labeled enzyme co-factor, S-adenosyl-L-methionine (^3H SAM) (Perkin Elmer) and monitoring the enzymatically mediated transfer of tritiated methyl groups from ^3H SAM to histone lysine residues. The amount of resulting tritiated methyl histone product was measured by first capturing the biotinylated oligonucleosomes in streptavidin (SAV) coated FlashPlates (Perkin Elmer), followed by a wash step to remove un-reacted ^3H SAM, and then counting on a TopCount NXT 384 well plate scintillation counter (Perkin Elmer). The final assay conditions for EZH2 were as follows: 50 mM Tris Buffer pH 8.5, 1 mM DTT, 69 μM Brij-35 detergent, 5.0 mM MgCl2, 0.1 mg/mL BSA, 0.2 μM ^3H SAM, 0.2 μM biotinylated oligonucleosomes, 3.6 μM H3K27me3 peptide and 2 nM EZH2.
Compound IC50 Measurements were Obtained as Follows:
Compounds were first dissolved in 100% DMSO as 10 mM stock solutions. Ten point dose response curves were generated by dispensing varying amounts of the 10 mM compound solution in 10 wells of the 384 well plate (Echo; Labcyte), pure DMSO was then used to backfill the wells to insure all wells have the same amount of DMSO. A 12.5 μL volume of the HMT enzyme, H3K27me3 peptide and oligonucleosome substrate in assay buffer was added to each well of the assay plate using a Multidrop Combi (ThermoFisher). Compounds were pre-incubated with the enzyme for 20 min, followed by initiation of the methyltransferase reaction by addition of 12.5 μL of ^3H SAM in assay buffer (final volume=25 μL). The final concentrations of compounds ranged from a top default concentration of 80 μM down to 0.16 μM in ten 2-fold dilution steps. Reactions were carried out for 60 minutes and quenched with 20 μL per well of 1.96 mM SAH, 50 mM Tris pH 8.5, 200 mM EDTA. Stopped reactions were transferred to SAV coated Flashplates (Perkin Elmer), incubated for 120 min, washed with a plate washer, and then read on the TopCount NXT (1.0 min/well) to measure the amount of methyl histone product formed during the reaction. The amount of methyl histone product was compared with the amount of product formed in the 0% and 100% inhibition control wells allowing the calculation of % Inhibition in the presence of the individual compounds at various concentrations. IC50's were computed using a 4 parameter fit non-linear curve fitting software package (XLFIT, part of the database package, ActivityBase (IDBS)) where the four parameters were IC50, Hill slope, pre-transitional baseline (0% INH), and post-transitional baseline (100% INH); with the latter two parameters being fixed to zero and 100%, respectively, by default.

Test [2] deals with T1, PRC2 containing wt EZH2 (Homo sapiens, UniProt Q15910).
T1 construct: made in house
T1 sequence (Q15910 whole entry): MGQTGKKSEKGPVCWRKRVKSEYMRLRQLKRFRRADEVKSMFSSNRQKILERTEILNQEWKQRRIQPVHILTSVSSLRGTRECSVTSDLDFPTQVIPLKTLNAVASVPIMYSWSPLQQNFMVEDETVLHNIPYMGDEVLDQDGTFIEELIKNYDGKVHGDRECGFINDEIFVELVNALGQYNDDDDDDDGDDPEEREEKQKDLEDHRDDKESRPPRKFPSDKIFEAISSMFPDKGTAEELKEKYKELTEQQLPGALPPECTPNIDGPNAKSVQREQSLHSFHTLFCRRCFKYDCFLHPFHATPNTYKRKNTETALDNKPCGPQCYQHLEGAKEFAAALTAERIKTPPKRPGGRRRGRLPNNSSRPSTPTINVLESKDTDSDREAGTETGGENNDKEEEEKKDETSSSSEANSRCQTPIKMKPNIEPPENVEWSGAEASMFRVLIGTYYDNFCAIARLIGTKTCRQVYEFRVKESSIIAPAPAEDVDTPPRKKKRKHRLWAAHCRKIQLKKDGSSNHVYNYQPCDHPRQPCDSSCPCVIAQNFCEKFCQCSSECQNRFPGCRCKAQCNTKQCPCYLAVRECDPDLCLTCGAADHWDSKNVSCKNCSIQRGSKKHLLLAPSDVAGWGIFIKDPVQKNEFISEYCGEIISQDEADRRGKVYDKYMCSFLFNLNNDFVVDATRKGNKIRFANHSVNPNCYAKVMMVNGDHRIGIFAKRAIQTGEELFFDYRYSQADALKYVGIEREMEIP
T1 sequence (O75530 whole entry partner): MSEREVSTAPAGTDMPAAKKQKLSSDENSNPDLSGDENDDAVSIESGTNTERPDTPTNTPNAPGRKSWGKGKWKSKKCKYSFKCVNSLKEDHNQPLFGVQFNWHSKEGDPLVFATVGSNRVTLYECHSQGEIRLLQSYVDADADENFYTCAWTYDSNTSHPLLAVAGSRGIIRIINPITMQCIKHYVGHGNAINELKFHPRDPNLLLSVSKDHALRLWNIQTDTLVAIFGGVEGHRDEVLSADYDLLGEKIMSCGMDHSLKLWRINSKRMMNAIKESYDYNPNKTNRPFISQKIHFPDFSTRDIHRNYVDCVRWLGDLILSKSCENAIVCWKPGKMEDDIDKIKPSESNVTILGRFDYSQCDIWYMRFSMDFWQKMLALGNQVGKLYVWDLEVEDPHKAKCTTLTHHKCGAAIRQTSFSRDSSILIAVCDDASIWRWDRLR
T1 sequence (Q15022 whole entry partner): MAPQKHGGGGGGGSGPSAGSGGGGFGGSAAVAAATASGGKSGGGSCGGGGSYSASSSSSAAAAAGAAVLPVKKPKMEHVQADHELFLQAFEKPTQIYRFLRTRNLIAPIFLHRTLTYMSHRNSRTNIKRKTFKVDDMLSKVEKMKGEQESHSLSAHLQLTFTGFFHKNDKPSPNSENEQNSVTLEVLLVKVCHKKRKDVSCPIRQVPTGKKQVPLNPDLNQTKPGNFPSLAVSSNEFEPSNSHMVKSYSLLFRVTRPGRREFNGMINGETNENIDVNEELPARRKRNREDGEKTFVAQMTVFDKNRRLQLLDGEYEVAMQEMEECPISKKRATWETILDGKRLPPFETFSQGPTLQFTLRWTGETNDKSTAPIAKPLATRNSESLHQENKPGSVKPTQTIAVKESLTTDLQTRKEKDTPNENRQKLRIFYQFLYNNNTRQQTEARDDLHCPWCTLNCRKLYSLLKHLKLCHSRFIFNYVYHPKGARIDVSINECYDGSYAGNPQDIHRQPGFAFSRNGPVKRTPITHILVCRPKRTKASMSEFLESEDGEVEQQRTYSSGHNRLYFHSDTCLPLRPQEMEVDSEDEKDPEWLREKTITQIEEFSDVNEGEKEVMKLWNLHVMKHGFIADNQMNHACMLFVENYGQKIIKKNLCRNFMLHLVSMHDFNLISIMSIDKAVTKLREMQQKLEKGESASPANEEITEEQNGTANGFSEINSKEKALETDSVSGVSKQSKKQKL
T1 sequence (Q09028 whole entry partner): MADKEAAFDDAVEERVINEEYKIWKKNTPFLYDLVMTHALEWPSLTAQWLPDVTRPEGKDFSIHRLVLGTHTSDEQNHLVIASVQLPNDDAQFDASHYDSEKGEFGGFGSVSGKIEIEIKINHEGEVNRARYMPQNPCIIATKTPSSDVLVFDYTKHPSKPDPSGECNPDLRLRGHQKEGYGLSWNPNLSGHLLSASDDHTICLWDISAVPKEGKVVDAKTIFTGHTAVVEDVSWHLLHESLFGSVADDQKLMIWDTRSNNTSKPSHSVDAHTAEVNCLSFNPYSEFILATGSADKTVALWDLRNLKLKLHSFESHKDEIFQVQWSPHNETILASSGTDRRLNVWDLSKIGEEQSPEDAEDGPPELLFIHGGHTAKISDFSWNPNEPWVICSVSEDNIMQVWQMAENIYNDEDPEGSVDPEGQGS
T1 sequence (Q6ZN18 whole entry partner): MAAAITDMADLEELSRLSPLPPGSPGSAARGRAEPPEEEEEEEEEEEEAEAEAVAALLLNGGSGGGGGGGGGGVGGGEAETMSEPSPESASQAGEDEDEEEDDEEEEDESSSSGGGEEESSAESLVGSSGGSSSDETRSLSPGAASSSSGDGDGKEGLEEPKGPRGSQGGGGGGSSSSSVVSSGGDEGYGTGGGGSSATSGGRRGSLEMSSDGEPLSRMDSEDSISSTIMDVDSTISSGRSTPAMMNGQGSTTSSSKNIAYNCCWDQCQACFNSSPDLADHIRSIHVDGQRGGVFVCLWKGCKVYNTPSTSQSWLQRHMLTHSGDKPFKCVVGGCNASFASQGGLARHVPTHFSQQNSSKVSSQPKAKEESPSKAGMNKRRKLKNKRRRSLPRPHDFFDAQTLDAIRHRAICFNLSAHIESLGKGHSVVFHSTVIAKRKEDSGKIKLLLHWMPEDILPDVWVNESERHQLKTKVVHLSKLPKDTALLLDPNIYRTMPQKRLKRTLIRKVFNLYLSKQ
In words: EZH2 pep BSA Brij 4.0 LowE (IC50): 3H-SAM incorporation into biotinylated H3 peptide. Format: biochemical. The essentials:
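PRC2 (wt EZH2, 20 pM) pre-incubated 120 min with compound, 0.9 μM 3H-SAM and 2 μM H3K27me3 activating peptide in pH 8.5 Tris/DTT/Brij-35/0.1% BSA, 0.8% DMSO. Biotinylated H3K27me1 peptide added (2 μM stock), 5 h at room temperature, EDTA/SAH quench, streptavidin Flashplate capture. IC50 from four-parameter fit versus full-activity and no-enzyme controls.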

Test [3] relates to H3K27me3 mark. Put plainly: H3K27me3 Alpha Hela Assay (AlphaLISA). To be noted: Hela cells, read-out: EZH2 Cell H3K27me3 Alpha HeLa (EC50 K27me3). Format: cell-based. An outline of the steps:
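HeLa cells at 1,000/well were treated with ten 3-fold compound doses for 72 h at 37 °C. After lysis and histone extraction, H3K27me3 was detected by AlphaLISA with anti-K27me3 acceptor beads, biotinylated anti-H3 (C-ter) antibody (3 nM final) and streptavidin donor beads (20 μg/mL final). Signals were normalized to DMSO and curve-fitted for EC50.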
For orientation: Alpha assays give light when donor and acceptor beads are brought close together.

Where [4] appears, read: EZH2 nuc BSA Brij 1.5 (IC50), 2 nM EZH2, 0.2 μM biotinylated oligonucleosomes, 0.2 μM 3H SAM, 3.6 μM H3K27me3 peptide.
Where [5] appears, read: EZH2 pep BSA Brij 4.0 LowE (IC50), 20 pM PRC2 wt EZH2, 0.9 μM 3H-SAM, biotinylated H3 peptide substrate, 2 μM H3K27me3 activating peptide.
The mark [6] stands for this setting: read-out: EZH2 nuc BSA Brij 1.5 (IC50); 2 nM EZH2, 0.2 μM biotinylated oligonucleosomes, 0.2 μM 3H SAM, 3.6 μM H3K27me3 peptide.
Where [7] appears, read: 2 nM EZH2, 0.2 μM biotinylated oligonucleosomes, 0.2 μM 3H SAM, 3.6 μM H3K27me3 peptide; read-out: EZH2 nuc BSA Brij 1.5 (IC50).
Setting [8] is: 20 pM PRC2 wt EZH2, 0.9 μM 3H-SAM, biotinylated H3 peptide substrate, 2 μM H3K27me3 activating peptide; read-out: EZH2 pep BSA Brij 4.0 LowE (IC50).

Sequence of EZH2 (Q15910 whole entry): as the sequence (Q15910 whole entry) above
Sequence of EZH2 (O75530 whole entry partner): as the sequence (O75530 whole entry partner) above
Sequence of EZH2 (Q15022 whole entry partner): as the sequence (Q15022 whole entry partner) above

For `COc1cc(C)[nH]c(=O)c1CNC(=O)c1c(C)n(C(C)C2CCNC(C(F)(F)F)C2)c2ccccc12` (single isomer, unassigned) [Compound 14, N-((4-methoxy-6-methyl-2-oxo-1,2-dihydropyridin-3-yl)methyl)-2-methyl-1-(1-(2-(trifluoromethyl)piperidin-4-yl)ethyl)-1H-indole-3-carboxamide], the 50% inhibitory concentration (IC50) in test [1] (setting [4]) and in test [2] (setting [5]) was under 100 nM in each case. Also, the EC50 in test [3] (72 hrs) is under 400 nM.

Consider `COc1cc(C)[nH]c(=O)c1CNC(=O)c1c(C)n(C(C)C2CCN(CC(F)(F)F)C(C)C2)c2ccccc12` (single isomer, unassigned) [Compound 43, N-((4-methoxy-6-methyl-2-oxo-1,2-dihydropyridin-3-yl)methyl)-2-methyl-1-(1-(2-methyl-1-(2,2,2-trifluoroethyl)piperidin-4-yl)ethyl)-1H-indole-3-carboxamide], for which the IC50 in test [1] (setting [6]) and in test [2] (setting [5]) was under 100 nM each time. In addition, the concentration for a half-maximal effect (EC50) in test [3] (72 hrs) is under 400 nM.

As for `COc1cc(C)[nH]c(=O)c1CNC(=O)c1c(C)n(C(C)C2CCN(CC(F)F)C(C)C2)c2ccccc12` (single isomer, unassigned) [Compound 40, 1-(1-(1-(2,2-difluoroethyl)-2-methylpiperidin-4-yl)ethyl)-N-((4-methoxy-6-methyl-2-oxo-1,2-dihydropyridin-3-yl)methyl)-2-methyl-1H-indole-3-carboxamide], the half-inhibitory concentration (IC50) in test [1] (setting [4]) and in test [2] (setting [5]) was under 100 nM each time. Moreover, in test [3] (Homo sapiens, HeLa, 72 h), the EC50 is under 400 nM.

Regarding `COc1cc(C)[nH]c(=O)c1CNC(=O)c1c(C)n(C(C)C2CCN(C3COC3)CC2C(F)(F)F)c2ccccc12` (stereo not drawn) [Compound 8, N-((4-methoxy-6-methyl-2-oxo-1,2-dihydropyridin-3-yl)methyl)-2-methyl-1-(1-(1-(oxetan-3-yl)-3-(trifluoromethyl)piperidin-4-yl)ethyl)-1H-indole-3-carboxamide], the IC50 in test [1] (setting [4]) and in test [2] (setting [5]) was under 100 nM throughout. Also, the 50% effective concentration (EC50) in test [3] (Homo sapiens, HeLa, 72 h) was over 2000 nM.

Take `COc1cc(C)[nH]c(=O)c1CNC(=O)c1c(C)n(C(C)C2CCNC(c3ccc(F)cc3)C2)c2ccccc12` (single isomer, unassigned) [Compound 31, 1-(1-(2-(4-fluorophenyl)piperidin-4-yl)ethyl)-N-((4-methoxy-6-methyl-2-oxo-1,2-dihydropyridin-3-yl)methyl)-2-methyl-1H-indole-3-carboxamide]: the half-inhibitory concentration (IC50) in test [1] (setting [7]) and in test [2] (setting [8]) was under 100 nM each time. Besides, in test [3] (72 hrs), the EC50 lay in the range of 400 to 2000 nM.

For `COc1cc(C)[nH]c(=O)c1CNC(=O)c1c(C)n(C(C)C2CCN(C)C(C(F)(F)F)C2)c2ccccc12` (single isomer, unassigned) [Compound 24, N-((4-methoxy-6-methyl-2-oxo-1,2-dihydropyridin-3-yl)methyl)-2-methyl-1-(1-(1-methyl-2-(trifluoromethyl)piperidin-4-yl)ethyl)-1H-indole-3-carboxamide], the IC50 in test [1] (setting [6]) is under 100 nM; in test [2] (read-out: EZH2 pep BSA Brij 4.0 LowE (IC50); 20 pM PRC2 wt EZH2, 0.9 μM 3H-SAM, biotinylated H3 peptide substrate, 2 μM H3K27me3 activating peptide) it was under 100 nM. Further, the concentration for a half-maximal effect (EC50) in test [3] (72 hrs) was under 400 nM.

Take `COc1cc(C)[nH]c(=O)c1CNC(=O)c1c(C)n(C(C)C2CCNC(c3ccc(F)cc3)C2)c2ccccc12` (single isomer, unassigned) [Compound 32, 1-(1-(2-(4-fluorophenyl)piperidin-4-yl)ethyl)-N-((4-methoxy-6-methyl-2-oxo-1,2-dihydropyridin-3-yl)methyl)-2-methyl-1H-indole-3-carboxamide]: the IC50 in test [1] (setting [7]) is under 100 nM. Moreover, in test [3] (72 hrs), the EC50 is over 2000 nM.

With `COc1cc(C)[nH]c(=O)c1CNC(=O)c1c(C)n(C(C)C2CCN(C)C(C(F)(F)F)C2)c2ccccc12` (single isomer, unassigned) [Compound 13, N-((4-methoxy-6-methyl-2-oxo-1,2-dihydropyridin-3-yl)methyl)-2-methyl-1-(1-(1-methyl-2-(trifluoromethyl)piperidin-4-yl)ethyl)-1H-indole-3-carboxamide], the half-inhibitory concentration (IC50) in test [1] (setting [4]) is under 100 nM. In addition, the concentration for a half-maximal effect (EC50) in test [3] (Homo sapiens, HeLa, 72 h) was in the range of 400 to 2000 nM.

For `CCN1CCC(C(C)n2c(C)c(C(=O)NCc3c(OC)cc(C)[nH]c3=O)c3ccccc32)CC1C(F)(F)F` (single isomer, unassigned) [Compound 9, 1-(1-(1-ethyl-2-(trifluoromethyl)piperidin-4-yl)ethyl)-N-((4-methoxy-6-methyl-2-oxo-1,2-dihydropyridin-3-yl)methyl)-2-methyl-1H-indole-3-carboxamide], in test [1] (setting [4]), the concentration for half-maximal inhibition (IC50) is under 100 nM. Further, the EC50 in test [3] (72 hrs) is over 2000 nM.

As for `COc1cc(C)[nH]c(=O)c1CNC(=O)c1c(C)n(C(C)C2CCNC(C(F)(F)F)C2)c2ccccc12` (single isomer, unassigned) [Compound 22, N-((4-methoxy-6-methyl-2-oxo-1,2-dihydropyridin-3-yl)methyl)-2-methyl-1-(1-(2-(trifluoromethyl)piperidin-4-yl)ethyl)-1H-indole-3-carboxamide], the concentration for half-maximal inhibition (IC50) in test [1] (setting [4]) was under 100 nM. Besides, in test [3] (72 hrs), the concentration giving a half-maximal response (EC50) lay in the range of 400 to 2000 nM.

In test [1] (setting [4]), `COc1cc(C)[nH]c(=O)c1CNC(=O)c1c(C)n(C(C)C2CCNCC2C(F)(F)F)c2ccccc12` (stereo not drawn) [Compound 19, N-((4-methoxy-6-methyl-2-oxo-1,2-dihydropyridin-3-yl)methyl)-2-methyl-1-(1-(3-(trifluoromethyl)piperidin-4-yl)ethyl)-1H-indole-3-carboxamide] displayed an IC50 of under 100 nM. Also, the half-maximal effective concentration (EC50) in test [3] (Homo sapiens, HeLa, 72 h) was over 2000 nM.

Turning to `COc1cc(C)[nH]c(=O)c1CNC(=O)c1c(C)n(C(C)C2CCNC(C(F)(F)F)C2)c2ccccc12` (single isomer, unassigned) [Compound 23, N-((4-methoxy-6-methyl-2-oxo-1,2-dihydropyridin-3-yl)methyl)-2-methyl-1-(1-(2-(trifluoromethyl)piperidin-4-yl)ethyl)-1H-indole-3-carboxamide], in test [1] (setting [4]), the half-inhibitory concentration (IC50) was 100 to 1000 nM. In test [3] (72 hrs), the concentration for a half-maximal effect (EC50) is over 2000 nM.

`COc1cc(C)[nH]c(=O)c1CNC(=O)c1c(C)n(C(C)C2CCN(C)C(C(F)(F)F)C2)c2ccccc12` (single isomer, unassigned) [Compound 15, N-((4-methoxy-6-methyl-2-oxo-1,2-dihydropyridin-3-yl)methyl)-2-methyl-1-(1-(1-methyl-2-(trifluoromethyl)piperidin-4-yl)ethyl)-1H-indole-3-carboxamide]: the IC50 in test [1] (setting [6]) and in test [2] (setting [5]) was under 100 nM each time. The EC50 in test [3] (72 hrs) is under 400 nM.

Regarding `COc1cc(C)[nH]c(=O)c1CNC(=O)c1c(C)n(C(C)C2CCN(C)C(c3ccc(F)cc3)C2)c2ccccc12` (stereo not drawn) [Compound 33, 1-(1-(2-(4-fluorophenyl)-1-methylpiperidin-4-yl)ethyl)-N-((4-methoxy-6-methyl-2-oxo-1,2-dihydropyridin-3-yl)methyl)-2-methyl-1H-indole-3-carboxamide], the 50% inhibitory concentration (IC50) in test [1] (setting [7]) and in test [2] (setting [8]) was under 100 nM throughout. Also, the EC50 in test [3] (Homo sapiens, HeLa, 72 h) lay in the range of 400 to 2000 nM.
